Source: BindingDB's records for doi:10.1016/j.bmcl.2006.03.030 (Gsk, 2006)

Target: Transient receptor potential cation channel subfamily V member 1 (Homo sapiens, UniProt Q8NER1)
Assay: FLIPR (Fluorescence Imaging Plate Reader)-Based Ca2+ Assay
Settings: pH 7.2; 25 °C
Method: One day before the assay was performed, human TRPV1 expressed in 1321N1 astrocytoma cells were plated onto 96-well assay plates and grown until 2.5 h before the assay, and the cells were loaded with the Ca2+ reporter dye Fluo3-AM for 2 h at room temperature. After this, the cells were washed, and continuously being incubated for 30 min with medium containing test compounds at a range of different concentrations. The plates were then placed into a FLIPR to monitor fluorescence (excitation @ 488 nm and emission @540 nm) before and after the addition of capsaicin, antagonist potency was determined versus an EC80 concentration of capsaicin that was determined empirically on the day of the experiment.

Chain of Transient receptor potential cation channel subfamily V member 1 (Q8NER1 whole entry): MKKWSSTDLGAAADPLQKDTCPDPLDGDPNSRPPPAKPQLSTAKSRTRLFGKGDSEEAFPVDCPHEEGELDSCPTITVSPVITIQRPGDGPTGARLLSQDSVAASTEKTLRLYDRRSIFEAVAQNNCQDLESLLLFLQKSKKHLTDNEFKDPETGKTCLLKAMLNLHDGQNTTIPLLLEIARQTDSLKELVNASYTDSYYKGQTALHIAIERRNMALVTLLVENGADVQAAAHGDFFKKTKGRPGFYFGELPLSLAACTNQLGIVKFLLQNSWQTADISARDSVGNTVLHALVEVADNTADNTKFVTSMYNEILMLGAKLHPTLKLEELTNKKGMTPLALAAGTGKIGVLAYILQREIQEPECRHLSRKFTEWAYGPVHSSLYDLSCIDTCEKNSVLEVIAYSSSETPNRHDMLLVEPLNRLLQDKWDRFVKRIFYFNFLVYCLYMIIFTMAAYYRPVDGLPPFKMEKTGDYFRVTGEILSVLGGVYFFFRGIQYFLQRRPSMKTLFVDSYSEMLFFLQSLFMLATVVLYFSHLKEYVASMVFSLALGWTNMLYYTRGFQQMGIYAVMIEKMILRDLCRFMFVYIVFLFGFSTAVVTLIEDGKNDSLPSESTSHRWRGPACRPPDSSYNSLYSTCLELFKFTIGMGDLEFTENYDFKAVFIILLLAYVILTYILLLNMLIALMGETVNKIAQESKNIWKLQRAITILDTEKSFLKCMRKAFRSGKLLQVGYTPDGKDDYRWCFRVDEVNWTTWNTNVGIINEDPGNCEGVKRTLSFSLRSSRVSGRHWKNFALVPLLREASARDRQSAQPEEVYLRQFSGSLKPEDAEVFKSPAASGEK

Compared with `O=C(Nc1ccccc1Br)N[C@@H]1CCN(c2ccc(Br)cn2)C1` [1-(2-bromophenyl)-3-[(3R)-1-(5-bromopyridin-2-yl)pyrrolidin-3-yl]urea], `Cc1ccc(N2CC[C@@H](NC(=O)Nc3ccccc3Br)C2)nc1` [1-(2-bromophenyl)-3-[(3R)-1-(5-methylpyridin-2-yl)pyrrolidin-3-yl]urea] is higher in EC50: 63 nM for the first, > 200 nM for the second. The first is the more potent here.

Compared with `Cc1ccc(N2CC[C@@H](NC(=O)Nc3ccccc3Br)C2)cc1F` [1-(2-bromophenyl)-3-[(3R)-1-(3-fluoro-4-methylphenyl)pyrrolidin-3-yl]urea], `O=C(Nc1ccccc1Br)N[C@@H]1CCN(c2ccc(F)c(F)c2)C1` [1-(2-bromophenyl)-3-[(3R)-1-(3,4-difluorophenyl)pyrrolidin-3-yl]urea] is 1.6-fold higher in EC50: 5 nM for the first, 8 nM for the second.

`O=C(Nc1ccccc1Br)N[C@@H]1CCN(c2cccc(F)c2)C1` [1-(2-bromophenyl)-3-[(3R)-1-(3-fluorophenyl)pyrrolidin-3-yl]urea] and `Cc1cccc(N2CC[C@@H](NC(=O)Nc3ccccc3Br)C2)c1` [1-(2-bromophenyl)-3-[(3R)-1-(3-methylphenyl)pyrrolidin-3-yl]urea] are within 1.5-fold of each other in EC50: 16 nM for the first, 20 nM for the second.

Going from `N#Cc1ccc(N2CC[C@@H](NC(=O)Nc3ccccc3Br)C2)nc1` [1-(2-bromophenyl)-3-[(3R)-1-(5-cyanopyridin-2-yl)pyrrolidin-3-yl]urea] to `O=C(Nc1ccccc1Br)N[C@@H]1CCN(c2ccc(Cl)cn2)C1` [1-(2-bromophenyl)-3-[(3R)-1-(5-chloropyridin-2-yl)pyrrolidin-3-yl]urea], the EC50 falls from 200 nM to 50 nM (4-fold).

`Cc1ccc2c(c1)CCN2CCNC(=O)Nc1ccccc1Br` [1-(2-bromophenyl)-3-[2-(5-methyl-2,3-dihydro-1H-indol-1-yl)ethyl]urea] and `Cc1ccc2c(c1)CCCN2CCNC(=O)Nc1ccccc1Br` [3-(2-bromophenyl)-1-[2-(6-methyl-1,2,3,4-tetrahydroquinolin-1-yl)ethyl]urea] are within 1.5-fold of each other in EC50: 50 nM for the first, 40 nM for the second.

Going from `O=C(NCCN1CCc2cc(F)ccc21)Nc1ccccc1Br` [1-(2-bromophenyl)-3-[2-(5-fluoro-2,3-dihydro-1H-indol-1-yl)ethyl]urea] to `O=C(NCCN1CCc2ccccc21)Nc1ccccc1Br` [1-(2-bromophenyl)-3-[2-(2,3-dihydro-1H-indol-1-yl)ethyl]urea], the EC50 rises from 79 nM to 158 nM (2-fold). The first is the more potent here.

`Cc1cccc2c1CCN2CCNC(=O)Nc1ccccc1Br` [1-(2-bromophenyl)-3-[2-(4-methyl-2,3-dihydro-1H-indol-1-yl)ethyl]urea] and `O=C(NCCN1CCc2c(F)cccc21)Nc1ccccc1Br` [1-(2-bromophenyl)-3-[2-(4-fluoro-2,3-dihydro-1H-indol-1-yl)ethyl]urea] are the same in EC50: 40 nM for the first, 40 nM for the second.

`Cc1cccc(N2CC[C@H](NC(=O)Nc3ccccc3Br)C2)c1` [1-(2-bromophenyl)-3-[(3S)-1-(3-methylphenyl)pyrrolidin-3-yl]urea] and `O=C(Nc1ccccc1Br)N[C@@H]1CCN(c2ccccn2)C1` [1-(2-bromophenyl)-3-[(3R)-1-(pyridin-2-yl)pyrrolidin-3-yl]urea] cannot be ordered by EC50: > 158 nM for the first, > 251 nM for the second.

Going from `O=C(Nc1ccccc1Br)N[C@@H]1CCN(c2ccc(C(F)(F)F)cn2)C1` [1-(2-bromophenyl)-3-[(3R)-1-[5-(trifluoromethyl)pyridin-2-yl]pyrrolidin-3-yl]urea] to `O=C(Nc1ccccc1Br)N[C@@H]1CCN(c2cc(C(F)(F)F)ccn2)C1` [1-(2-bromophenyl)-3-[(3R)-1-[4-(trifluoromethyl)pyridin-2-yl]pyrrolidin-3-yl]urea], the EC50 rises from 32 nM to 126 nM (3.9-fold). The first is the more potent here.

`O=C(Nc1ccccc1Br)N[C@@H]1CCN(c2ncccc2C(F)(F)F)C1` [1-(2-bromophenyl)-3-[(3R)-1-[3-(trifluoromethyl)pyridin-2-yl]pyrrolidin-3-yl]urea] and `O=C(Nc1ccccc1Br)N[C@@H]1CCN(c2cccc(C(F)(F)F)n2)C1` [1-(2-bromophenyl)-3-[(3R)-1-[6-(trifluoromethyl)pyridin-2-yl]pyrrolidin-3-yl]urea] are within 1.5-fold of each other in EC50: 79 nM for the first, 63 nM for the second.
